Measurements: patent US20230081426A1, “COMPOUNDS AND METHODS FOR KRAS MODULATION AND INDICATIONS THEREFOR” (Plexxikon Inc., priority 2020, published 2023)

Experiments:
[1] = molecular target: T1, G12D-mutant human KRAS (amino acid residues 1-188) (Homo sapiens, UniProt P01116, G12D); experiment: KRAS Binding Disruption Assay (AlphaScreen; biotinylated KRpep-2d analogue or RAF1-RBD), G12D; details: KRAS G12D; geometric mean; read-out: KRAS GMean IC50 (uM) MUTATION: G12D
T1 construct: G12D or G12C-mutant human KRAS (amino acid residues 1-188) with FLAG tag; made in house; host or cells: E. coli
Outline: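 Compounds are titrated against 5-20 nM mutant KRAS and 5-20 nM of either a biotinylated KRpep-2d analogue or RAF1-RBD, incubated 1 h at 25° C. Disruption is detected as reduced Alpha signal after 1 h with donor and acceptor beads at 10 μg/mL.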

[2] = molecular target: T2, G12C-mutant human KRAS (amino acid residues 1-188) (Homo sapiens, UniProt P01116, G12C); experiment: KRAS Binding Disruption Assay (AlphaScreen; biotinylated KRpep-2d analogue or RAF1-RBD), G12C; details: geometric mean, read-out: KRAS GMean IC50 (uM) MUTATION: G12C
T2 construct: G12D or G12C-mutant human KRAS (amino acid residues 1-188) with FLAG tag; made in house; host or cells: E. coli
Procedure: Compound binding disrupts the interaction of KRpep-2d or RAF1-RBD with KRAS, leading to a decrease in Alpha signal.
All assay components were prepared in 20 mM HEPES (pH 7.5), 100 mM NaCl, 5 mM MgCl2, 0.01% Tween-20, and 0.01% BSA. Biotinylated analogues of KRpep-2d were custom synthesized. The binding disruption assays were performed using 5-20 nM of mutant KRAS and 5-20 nM of either biotinylated KRpep-2d analogue or RAF1-RBD. 19 μL of KRAS protein and 4 μL of biotinylated KRpep-2d or RAF1-RBD were added to the wells of a 384-well plate containing 1 μL of various concentrations of test compound or DMSO vehicle. 16 wells containing KRAS, biotinylated KRpep-2d or RAF1-RBD, and 5% DMSO served as high controls. 16 wells containing KRAS only and 5% DMSO served as low controls. Binding reactions were incubated for 1 hour at 25° C., then Anti-Flag Acceptor and Streptavidin Donor Alpha beads were added at a final concentration of 10 μg/mL for an additional hour at room temperature. Alpha signal was read out on a Perkin Elmer Envision HTS instrument. The percentage inhibition at individual compound concentrations relative to high and low controls was calculated. The data were analyzed by using nonlinear regression to generate IC50 values.

T2 sequence (P01116 1-188 isoform P01116-2 G12C): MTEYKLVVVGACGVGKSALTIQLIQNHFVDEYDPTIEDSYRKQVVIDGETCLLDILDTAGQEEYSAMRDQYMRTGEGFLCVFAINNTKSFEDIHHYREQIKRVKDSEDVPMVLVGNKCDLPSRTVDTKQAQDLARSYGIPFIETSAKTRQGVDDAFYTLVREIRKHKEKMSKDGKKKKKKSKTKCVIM
T1 sequence (P01116 1-188 isoform P01116-2 G12D): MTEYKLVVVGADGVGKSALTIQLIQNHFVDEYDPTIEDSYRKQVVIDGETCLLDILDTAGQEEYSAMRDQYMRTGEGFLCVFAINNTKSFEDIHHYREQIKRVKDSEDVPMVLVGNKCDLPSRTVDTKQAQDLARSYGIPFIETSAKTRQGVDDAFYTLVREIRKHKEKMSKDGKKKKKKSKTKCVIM

CN(C)C1(C(N)=O)CN(c2nc(N3C[C@H]4CC[C@@H](C3)N4)c3ccc(-c4cc(O)cc5ccccc45)c(F)c3n2)C1 [P-0640, 1-(4-((1R,5S)-3,8-diazabicyclo[3.2.1]octan-3-yl)-8-fluoro-7-(3-hydroxynaphthalen-1-yl)quinazolin-2-yl)-3-(dimethylamino)azetidine-3-carboxamide]
IC50 [1]: 0.0001 to 10 µM
IC50 [2]: 10 to 100 µM

Oc1cc(-c2ccc3c(N4C[C@H]5CC[C@@H](C4)N5)nc(N4CC(N5CCOCC5)C4)nc3c2F)c2ccccc2c1 [P-0703, 4-(4-((1R,5S)-3,8-diazabicyclo[3.2.1]octan-3-yl)-8-fluoro-2-(3-morpholinoazetidin-1-yl)quinazolin-7-yl)naphthalen-2-ol]
IC50 [1]: 0.0001 to 10 µM
IC50 [2]: 10 to 100 µM

CN(C)C(C)(C)COc1nc(N2C[C@H]3CC[C@@H](C2)N3)c2ccc(-c3cc(O)cc4ccccc34)c(F)c2n1 [P-0736, 4-(4-((1R,5S)-3,8-diazabicyclo[3.2.1]octan-3-yl)-2-(2-(dimethylamino)-2-methylpropoxy)-8-fluoroquinazolin-7-yl)naphthalen-2-ol]
IC50 [1]: 0.0001 to 10 µM
IC50 [2]: 10 to 100 µM

Oc1cc(-c2ccc3c(N4C[C@H]5CC[C@@H](C4)N5)nc(OCCn4cncn4)nc3c2F)c2ccccc2c1 [P-0689, 4-(2-(2-(1H-1,2,4-triazol-1-yl)ethoxy)-4-((1R,5S)-3,8-diazabicyclo[3.2.1]octan-3-yl)-8-fluoroquinazolin-7-yl)naphthalen-2-]
IC50 [1]: 0.0001 to 10 µM
IC50 [2]: 10 to 100 µM

CC(C)(CO)COc1nc(N2C[C@H]3CC[C@@H](C2)N3)c2ccc(-c3cc(O)cc4ccccc34)c(F)c2n1 [P-0719, 4-(4-((1R,5S)-3,8-diazabicyclo[3.2.1]octan-3-yl)-8-fluoro-2-(3-hydroxy-2,2-dimethylpropoxy)quinazolin-7-yl)naphthalen-2-ol]
IC50 [1]: 0.0001 to 10 µM
IC50 [2]: 0.0001 to 10 µM

CC(C)(C)OC(=O)COc1nc(N2C[C@H]3CC[C@@H](C2)N3)c2ccc(-c3cc(O)cc4ccccc34)c(F)c2n1 [P-0744, tert-butyl 2-((4-((1R,5S)-3,8-diazabicyclo[3.2.1]octan-3-yl)-8-fluoro-7-(3-hydroxynaphthalen-1-yl)quinazolin-2-yl)oxy)acetate]
IC50 [1]: 0.0001 to 10 µM
IC50 [2]: 10 to 100 µM

Cc1cccc2c(-c3c(F)cc4c(N5C[C@H]6CC[C@@H](C5)N6)nc(OC[C@@H]5CCCN5C)nc4c3F)c[nH]c12 [P-0795, 4-((1R,5S)-3,8-diazabicyclo[3.2.1]octan-3-yl)-6,8-difluoro-7-(7-methyl-1H-indol-3-yl)-2-(((S)-1-methylpyrrolidin-2-yl)methoxy)quinazoline]
IC50 [1]: 10 to 100 µM
IC50 [2]: 10 to 100 µM

Oc1cc(-c2ccc3c(N4C[C@H]5CC[C@@H](C4)N5)nc(OCCN4CCCC4)nc3c2F)c2ccccc2c1 [P-0696, 4-(4-((1R,5S)-3,8-diazabicyclo[3.2.1]octan-3-yl)-8-fluoro-2-(2-(pyrrolidin-1-yl)ethoxy)quinazolin-7-yl)naphthalen-2-ol]
IC50 [1]: 0.0001 to 10 µM
IC50 [2]: 10 to 100 µM

N#CCCC(=O)N1[C@@H]2CC[C@H]1CN(c1nc(OCC34CCCN3CCC4)nc3c(F)c(-c4cc(O)cc5ccccc45)ccc13)C2 [P-0808, 4-((1R,5S)-3-(8-fluoro-7-(3-hydroxynaphthalen-1-yl)-2-((tetrahydro-1H-pyrrolizin-7a(5H)-yl)methoxy)quinazolin-4-yl)-3,8-diazabicyclo[3.2.1]octan-8-yl)-4-oxobutanenitrile]
IC50 [1]: 0.0001 to 10 µM
IC50 [2]: 0.0001 to 10 µM

Fc1cc2c(N3C[C@H]4CC[C@@H](C3)N4)nc(OCC34CCCN3CCC4)nc2c(F)c1-c1c[nH]c2ccc(F)c(F)c12 [P-0788, 4-((1R,5S)-3,8-diazabicyclo[3.2.1]octan-3-yl)-7-(4,5-difluoro-1H-indol-3-yl)-6,8-difluoro-2-((tetrahydro-1H-pyrrolizin-7a(5H)-yl)methoxy)quinazoline]
IC50 [1]: 0.0001 to 10 µM
IC50 [2]: 0.0001 to 10 µM
